Like-named read-outs stand apart in the source and are kept apart here.
How the values were obtained:
Type in all cases: in vivo
[1] = Acute toxicity in the mouse, orally; conditions: in vivo, oral, read-out: Mortality at 10th day %
Excerpt: (§1) Firstly, the acute and subacute toxicity in the mouse orally has been tested.
(§2) Table 1- Acute toxicity, in the mouse, of 1-(p-chlorobenzoyl)5-methoxy-2-methylindole-3-acetic acid (Product A) and of 1-(p-chlorobenzoyl) -5-methoxy-2-methylindole-3-acet-3-oxo-1-isobenzofuranyl ester derivative (Product B)

mouse [2] = assay: Acute toxicity in the mouse, orally; conditions: for Autopsical examination (gastroenteric hyperemia, ulcers): oral
Excerpt: as §1, §2

mouse [3] = assay: Antalgic activity in the mouse: tail-compression test (Bianchi C. test); conditions: oral; for Time for which the algic stimulus is tolerated: two hours from administration, equal doses
Protocol: The time elapsing between the algic stimulus and the reaction of the mouse trying to get out of said stimulus was determined in seconds.
The measure was effected at the times 0, 1, 2, 3 hours from administation of the derivative object of the present invention (Product B) and from administration of the comparison compound (Product A).
1--two lots of control animals: 0.5 ml/animal of mucilage of 5% arabic gum;
2--one lot treated with Product A--4 mg/kg;
3--one lot treated with Product A--7 mg/kg;
4--one lot treated with Product B--4 mg/kg;
5--one lot treated with Product B--7 mg/kg.

rat [4] = assay: Ulcerogen activity in the fasted rat (autopsic examination of stomach, jejunum, large intestine and liver); conditions: 5 mg/kg
Protocol: In order to complete the picture of the possible ulcerogen activity, in the rat, of the product which is the object of this invention, a further research on the rat as against Product A, was performed.
Both the test molecules were suspended in 5% arabic gum and taken to solution.
The pharmacological treatment at the standard dose of 5 mg/kg was effected orally by means of a gastro-oesophageal probe.
The groups of animals were treated after 9, 24, 31, 50, 53, 56, 60 and 70 hours from beginning of the fasting. During the fasting period the animals received subcutaneously, 2 ml/die/animal of a 5% glucose solution in […]. The animals were sacrificed, by decapitation, at 48 and 72 hours from beginning of the fasting; there were drawn for autopsic examination, jejunum and large intestine, which were examined microscopically in order to detect the presence of any possible ulcerations.

rat [5] = assay: as above; conditions: 5 mg/kg; remark: listed apart in the source
[6] = test system: paw-oedema, induced by means of sub-plantar injection of carrageenin; assay: Anti-phlogistic activity: carrageenin-induced paw-oedema in the rat; conditions: oral
Protocol: In order to show the therapeutical activity of the derivative, which is an object of this invention, a research was carried out firstly on the anti-phlogistic activity as compared with the one of Product A.
The research was carried out in the rat by using the test of paw-oedema, induced by means of sub-plantar injection of carrageenin in a 1% solution. 0.1 ml of this solution was injected to each animal.
One hour before inoculation of the oedemigenous agent, the two test drugs were administered orally (gastric probe) to the different groups, according to the experimental scheme, and contemporaneously were measured, with a base value, the volume of the right untreated paw.
The treatment was effected on lots of five male animals of average weight of 240-270 g., according to the following experimental scheme:
1--three lots of control animals: 10 ml/kg mucilage of arabic gum;
2--one lot of animals treated with Product A--5 mg/kg;
3--one lot of animals treated with Product A--5.3 mg/kg;
4--one lot of animals treated with Product A--7 mg/kg;
5--one lot of animals treated with Product B--5 mg/kg;
6--one lot of animals treated with Product B--5.3 mg/kg;
7--one lot of animals treated with Product B--7 mg/kg.

[7] = oral, sacrificed at 48 hours from beginning of fasting (3 administrations)
[8] = oral, sacrificed at 72 hours from beginning of fasting (8 administrations)

Row | SMILES | mortality at 240 h ([1]; dose 10 mg/kg) | mortality at 240 h ([1]; dose 18 mg/kg) | mortality at 240 h ([1]; dose 20 mg/kg) | mortality at 240 h ([1]; dose 25 mg/kg) | mortality at 240 h ([1]; dose 28 mg/kg) | Autopsical examination (gastroenteric hyperemia, ulcers) (mouse [2]) | Time for which the algic stimulus is tolerated (mouse [3]) | Large intestine (caecum), autopsic examination (rat [4]; [7]) | Small intestine (jejunum), autopsic examination (rat [4]; [7]) | Caecum, autopsic examination (rat [4]; [8]) | Jejunum, autopsic examination (rat [4]; [8]) | Stomach, autopsic examination (rat [5]; [7]) | Stomach, autopsic examination (rat [5]; [8]) | Anti-phlogistic effect (onset and extent) compared with the comparison product [6] | Anti-phlogistic activity compared with Product A ([6]; doses being equal (5, 5.3, 7 mg/kg), within the first three hours) | Toxic component compared with the free acid (mouse [2]; in vivo) | Antalgic activity compared with the comparison product (mouse [3]; mouse, 4 and 7 mg/kg) | Caecum, autopsic examination (rat [4]; in vivo, po) | Liver, macroscopic and microscopic examination (rat [4]; in vivo, po) | Stomach, autopsic examination (rat [5]; in vivo, po)
1 | COc1ccc2c(c1)c(CC(=O)O)c(C)n2C(=O)c1ccc(Cl)cc1 [Product A, 1-(p-chlorobenzoyl)-5-methoxy-2-methylindole-3-acetic acid, reference compound] | 40% | 70% | 90% | 100% | 100% | very marked gastroenteric hyperemia with presence of numerous ulcers | ≤ 30 s | highly hyperemic | slightly hyperemic, with presence of microulcers | Caecum with hemorrhagic microareas | Jejunum diffusely hyperemic | Stomach diffusely hyperemic | Stomach highly hyperemic with presence of evident macroulcers | – | – | – | – | – | – | –
2 | COc1ccc2c(c1)c(CC(=O)OC1OC(=O)c3ccccc31)c(C)n2C(=O)c1ccc(Cl)cc1 (stereo not shown) [Product B, 1-(p-chlorobenzoyl)-5-methoxy-2-methyl indole-3-acetic acid 3-oxo-1-isobenzofuranyl ester] | 20% | 40% | 50% | 60% | 70% | only a slight gastroenteric hyperemia, but no ulcer | 45 s | – | – | – | Jejunum slightly hyperemic | – | – | remarkably more precocious, as well as more marked | signficantly more active, doses being equal, than the comparison product (Product A) within the first three hours | lesser than the one of the free acid | quite superior | None at caecum level | nothing pathological resulted | No considerable alteration at stomach level

— US4277489A, “1(p-Chlorobenzoyl)-5-methoxy-2-methyl indole-3-acetic acid-3-oxo-isobenzofuranyl ester and pharmaceutical use thereof” (priority 1979, dated 1981)
